# Measured values taken from PMC8552465 (ACS Omega, 2021).
# Several values for one entry are separate records, joined by “and”; a condition that tells them apart may be missing. Identical values can stand only once. Entries after “also recorded” stand apart in the source; their conditions may differ.
# Tests used:
# recombinant human MAO-A = biological target: T1, recombinant human MAO-A (Homo sapiens, UniProt P21397); test: MAO-A inhibition assay; format: biochemical
# T1 sequence (P21397 1-527): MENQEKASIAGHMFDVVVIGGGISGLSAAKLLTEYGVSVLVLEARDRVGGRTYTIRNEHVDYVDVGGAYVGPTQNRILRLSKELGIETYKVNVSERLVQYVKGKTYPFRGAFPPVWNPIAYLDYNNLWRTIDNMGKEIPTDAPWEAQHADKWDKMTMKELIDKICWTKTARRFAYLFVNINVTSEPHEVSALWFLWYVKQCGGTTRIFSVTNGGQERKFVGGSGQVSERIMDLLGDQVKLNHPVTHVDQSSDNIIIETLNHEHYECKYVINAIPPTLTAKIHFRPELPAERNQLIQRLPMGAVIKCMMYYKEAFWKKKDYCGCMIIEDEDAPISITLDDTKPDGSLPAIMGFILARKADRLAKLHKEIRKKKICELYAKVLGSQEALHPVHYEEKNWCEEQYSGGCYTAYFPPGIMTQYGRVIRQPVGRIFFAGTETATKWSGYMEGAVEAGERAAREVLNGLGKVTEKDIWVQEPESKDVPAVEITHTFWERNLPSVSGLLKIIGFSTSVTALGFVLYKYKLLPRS
# MAO-B [1] = biological target: T2, MAO-B (Homo sapiens, UniProt P27338); test: MAO-B inhibition assay; format: biochemical; details: read-out: residual activity at 10 μM (%) MAO-B
# T2 sequence (P27338 1-520): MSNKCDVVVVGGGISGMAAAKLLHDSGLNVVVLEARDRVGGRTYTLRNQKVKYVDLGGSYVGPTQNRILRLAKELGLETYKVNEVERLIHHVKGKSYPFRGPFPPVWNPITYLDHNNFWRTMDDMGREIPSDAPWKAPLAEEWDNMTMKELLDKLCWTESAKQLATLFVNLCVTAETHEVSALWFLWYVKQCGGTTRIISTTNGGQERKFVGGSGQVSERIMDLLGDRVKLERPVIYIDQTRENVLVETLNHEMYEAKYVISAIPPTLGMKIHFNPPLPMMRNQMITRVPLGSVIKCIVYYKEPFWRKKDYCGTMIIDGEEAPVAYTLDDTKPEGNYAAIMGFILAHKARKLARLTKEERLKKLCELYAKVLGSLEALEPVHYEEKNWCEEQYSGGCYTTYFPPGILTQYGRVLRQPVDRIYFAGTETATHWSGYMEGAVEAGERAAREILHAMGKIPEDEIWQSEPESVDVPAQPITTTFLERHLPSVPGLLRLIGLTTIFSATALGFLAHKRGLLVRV
# AChE = AChE (Electrophorus electricus, UniProt O42275); test: AChE inhibition assay; format: biochemical
# AChE, sequence (O42275 24-633): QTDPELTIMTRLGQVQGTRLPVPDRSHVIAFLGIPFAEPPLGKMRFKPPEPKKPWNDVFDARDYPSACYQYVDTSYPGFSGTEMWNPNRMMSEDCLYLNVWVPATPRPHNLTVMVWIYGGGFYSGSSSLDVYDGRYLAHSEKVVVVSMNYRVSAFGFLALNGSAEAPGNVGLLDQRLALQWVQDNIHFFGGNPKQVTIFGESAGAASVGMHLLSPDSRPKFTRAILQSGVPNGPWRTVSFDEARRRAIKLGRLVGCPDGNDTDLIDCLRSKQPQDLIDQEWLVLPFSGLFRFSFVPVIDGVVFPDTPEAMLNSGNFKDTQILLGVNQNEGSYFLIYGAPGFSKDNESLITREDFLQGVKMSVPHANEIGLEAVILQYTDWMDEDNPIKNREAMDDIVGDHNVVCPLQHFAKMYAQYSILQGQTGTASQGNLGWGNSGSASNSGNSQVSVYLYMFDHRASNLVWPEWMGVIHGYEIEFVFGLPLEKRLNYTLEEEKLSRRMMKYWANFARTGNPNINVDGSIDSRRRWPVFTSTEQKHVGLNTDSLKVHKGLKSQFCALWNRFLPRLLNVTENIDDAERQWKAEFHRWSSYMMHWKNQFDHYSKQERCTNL
# BChE [2] = biological target: T3, BChE (Equus caballus, UniProt P81908); test: BChE inhibition assay; format: biochemical, equine
# T3 sequence (P81908 whole entry): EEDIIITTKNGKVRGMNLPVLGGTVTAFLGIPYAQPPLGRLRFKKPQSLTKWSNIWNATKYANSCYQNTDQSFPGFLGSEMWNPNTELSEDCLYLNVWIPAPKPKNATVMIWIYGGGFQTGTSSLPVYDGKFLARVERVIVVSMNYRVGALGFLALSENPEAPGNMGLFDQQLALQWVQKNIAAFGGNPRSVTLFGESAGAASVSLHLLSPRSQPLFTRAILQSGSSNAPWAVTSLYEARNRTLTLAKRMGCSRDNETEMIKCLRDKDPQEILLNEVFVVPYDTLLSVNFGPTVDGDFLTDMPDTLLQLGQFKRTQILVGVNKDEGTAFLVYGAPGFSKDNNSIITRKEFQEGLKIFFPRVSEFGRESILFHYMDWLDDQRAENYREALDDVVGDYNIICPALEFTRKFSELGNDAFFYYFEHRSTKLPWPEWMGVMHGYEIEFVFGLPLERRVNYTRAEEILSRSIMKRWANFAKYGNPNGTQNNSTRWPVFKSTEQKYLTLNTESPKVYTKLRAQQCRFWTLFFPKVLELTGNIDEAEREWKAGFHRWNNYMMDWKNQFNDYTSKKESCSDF
# BACE-1 = BACE-1 (Homo sapiens, UniProt P56817); test: BACE-1 activity detection kit; format: biochemical; details: read-out: residual activity at 10 μM (%) BACE-1
# BACE-1, sequence (P56817 46-501): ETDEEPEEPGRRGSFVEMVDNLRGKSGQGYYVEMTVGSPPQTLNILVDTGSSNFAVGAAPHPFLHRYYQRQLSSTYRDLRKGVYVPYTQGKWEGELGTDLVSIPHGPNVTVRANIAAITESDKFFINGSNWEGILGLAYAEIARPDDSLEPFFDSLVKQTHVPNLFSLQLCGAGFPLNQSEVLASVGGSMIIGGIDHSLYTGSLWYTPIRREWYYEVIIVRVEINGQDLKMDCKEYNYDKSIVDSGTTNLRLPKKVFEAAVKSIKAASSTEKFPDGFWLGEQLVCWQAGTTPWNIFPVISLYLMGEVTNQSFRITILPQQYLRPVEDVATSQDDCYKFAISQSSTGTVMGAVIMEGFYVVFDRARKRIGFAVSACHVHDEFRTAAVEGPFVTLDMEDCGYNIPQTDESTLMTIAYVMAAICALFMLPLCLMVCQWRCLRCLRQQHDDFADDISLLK
# MAO-B [3] = biological target: T2, MAO-B; test: Kinetics of MAO-B inhibition; format: biochemical
# BChE [4] = biological target: T3, BChE; test: Kinetics of BChE inhibition; format: biochemical, equine
# MAO-B [5] = biological target: T2, MAO-B; test: Reversibility of MAO-B inhibition by dialysis; format: biochemical
# BChE [6] = biological target: T3, BChE; test: Reversibility of BChE inhibition by dialysis; format: biochemical, equine
# [7] = In vitro toxicity by MTT on Vero cells; details: African green monkey, Vero cells (African green monkey kidney epithelial cells), Vero cell viability, up to 100 μg/mL, 48 h, MTT
# Vero cells = test: In vitro toxicity by MTT on Vero cells
# [8] = Lineweaver–Burk and secondary plots
structure (smiles),measurement,setting,value
"O=C(/C=C/c1ccccc1Cl)c1cc2ccccc2oc1=O [CC2, 3-[(2E)-3-(2-chlorophenyl)prop-2-enoyl]-2H-1-benzopyran-2-one]",IC50,recombinant human MAO-A,> 40 µM
same,remaining activity at 10 µM,recombinant human MAO-A; read-out: residual activity at 10 μM (%) MAO-A,76.6 ± 1.8%
same,remaining activity at 10 µM,MAO-B [1],19.8 ± 5.9%
same,IC50,"AChE; IC50 (μM) AChE, means ± standard errors, reference compounds after preincubation for 30 min with enzymes",40.1 ± 0.12 µM
same,remaining activity at 10 µM,"AChE; read-out: residual activity at 10 μM (%) AChE, 10 μM",69.4 ± 3.6%
same,IC50,BChE [2],7 ± 0.02 µM
same,residual activity at 10 μM (%) BChE,BChE [2]; 10 μM,43.9 ± 3.7%
same,remaining activity at 10 µM,"BChE [2]; read-out: residual activity at 10 μM (%) BChE, 10 μM",< 50%
same,remaining activity at 10 µM,BACE-1,61.1 ± 1%
same,Ki,MAO-B [3],0.53 ± 0.04 µM
same,type of MAO-B inhibition,MAO-B [3]; [8],competitive
same,Ki,BChE [4],2.84 ± 0.09 µM
same,type of BChE inhibition,BChE [4]; [8],competitive
same,reversibility of MAO-B inhibition,MAO-B [5],reversible
same,reversibility of BChE inhibition,BChE [6],reversible
same,"viability at 48 h, 100 μg/mL",[7],~70%
same,IC50,"Vero cells; Chlorocebus sabaeus, Vero, 48 h, read-out: IC50 Vero cell viability",142 µg/mL and 456 µM
same,Vero cell viability,"Vero cells; up to 100 μg/mL, 48 h, MTT",> 70%
same,toxicity for Vero cells,Vero cells; up to a concentration of 100 μg/mL,nontoxic; also recorded: not toxic
